Data from patent publication US20070049593A1 (priority 2004, published 2007).
Counter-ions that a name gives are not always drawn.

These compounds were tested against T1, HCV polymerase (Hepatitis C virus genotype 1b, UniProt P26663) (assay: biochemical). Conditions: not given.
T1 construct: a region encoding NS5B (J Virol 1991 March, 65(3), 1105-13, 544 amino acids after deletion of 47 amino acids on the C-terminal); 6xHis (C); made in house; host or cells: Escherichia coli
Parameters: species or system HCV BK strain
Description: The evaluation of the HCV polymerase inhibitory activity of the compound of the present invention is explained in the following. This polymerase is an enzyme coded for by the non-structural protein region called NS5B on the genome RNA of HCV (EMBO J., 15:12-22, 1996).
Using, as a template, a cDNA clone corresponding to the full length genome RNA of HCV BK strain obtained from the blood of a patient with hepatitis C, a region encoding NS5B (J Virol 1991 March, 65(3), 1105-13, 544 amino acids after deletion of 47 amino acids on the C-terminal) was amplified by PCR. The objective gene was prepared by adding a 6 His tag {base pair encoding 6 continuous histidine (His)}to the 3′ end thereof and transformed to Escherichia coli. The Escherichia coli capable of producing the objective protein was cultured. The obtained cells were suspended in a buffer solution and crushed in a microfluidizer.
Using a synthetic primer designed based on the sequence of HCV genomic 3′ untranslated region, a DNA fragment (148 bp) containing polyU and 3′X sequence was entirely synthesized and cloned into plasmid pBluescript SK II(+) (Stratagene). The cDNA encoding full length NS5B, which was prepared in i) above, was digested with restriction enzyme KpnI to give a cDNA fragment containing the nucleotide sequence of from the restriction enzyme cleavage site to the termination codon. This cDNA fragment was inserted into the upstream of 3′ untranslated region of the DNA in pBluescript SK II(+) and ligated. The about 450 bp inserted DNA sequence was used as a template in the preparation of substrate RNA.
RNA was synthesized (37° C., 3 hr) by run-off method using this purified DNA as a template, a promoter of pBluescript SK II(+), MEGAscript RNA synthesis kit (Ambion) and T7 RNA polymerase. DNase I was added and the mixture was incubated for 1 hr. The template DNA was removed by decomposition to give a crude RNA product.
A test substance (compound of the present invention) and a reaction mixture (30 μl) having the following composition were reacted at 25° C. for 90 min.
10% Trichloroacetic acid at 4° C. and 1% sodium pyrophosphate solution (150 μl) were added to this reaction mixture to stop the reaction. The reaction mixture was left standing in ice for 15 min to insolubilize RNA. This RNA was trapped on a glass filter (Whatman GF/C and the like) upon filtration by suction. This filter was washed with a solution containing 1% trichloroacetic acid and 0.1% sodium pyrophosphate, washed with 90% ethanol and dried. A liquid scintillation cocktail (Packard) was added and the radioactivity of RNA synthesized by the enzyme reaction was measured on a liquid scintillation counter.
The HCV polymerase inhibitory activity (IC50) of the compound of the present invention was calculated from the values of radioactivity of the enzyme reaction with and without the test substance.
Reaction mixture: HCV polymerase (0.5 μg/ml) obtained in i), substrate RNA (5 μg/ml) obtained in ii), ATP (50 μM), GTP (50 μM), CTP ([…]), UTP (2 μM), [5,6-^3H]UTP (46 Ci/mmol (Amersham), 1 μCi) 20 mM Tris-HCl (pH 7.5), EDTA (1 mM), MgCl2 (5 mM), NaCl (50 mM), DTT (1 mM), BSA (0.01%)

T1 sequence (P26663 2420-2963): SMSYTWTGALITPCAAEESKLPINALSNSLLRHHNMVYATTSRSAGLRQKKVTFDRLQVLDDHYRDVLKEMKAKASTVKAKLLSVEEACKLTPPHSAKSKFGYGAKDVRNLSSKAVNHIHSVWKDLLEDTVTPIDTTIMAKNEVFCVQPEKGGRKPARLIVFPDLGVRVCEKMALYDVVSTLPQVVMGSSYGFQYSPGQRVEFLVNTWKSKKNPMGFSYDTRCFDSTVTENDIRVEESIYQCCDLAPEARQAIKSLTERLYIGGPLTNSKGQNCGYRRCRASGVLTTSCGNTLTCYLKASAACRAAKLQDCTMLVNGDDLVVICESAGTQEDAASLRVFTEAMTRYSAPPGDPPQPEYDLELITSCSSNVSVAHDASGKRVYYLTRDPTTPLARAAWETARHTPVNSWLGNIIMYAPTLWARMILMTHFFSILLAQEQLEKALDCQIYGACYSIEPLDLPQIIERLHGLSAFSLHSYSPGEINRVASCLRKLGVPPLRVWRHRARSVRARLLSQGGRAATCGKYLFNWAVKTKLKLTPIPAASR

| SMILES | IC50 |
| --- | --- |
| O=C(O)c1ccc2c(C3CCCCC3)c3n(c2c1)CCN(CC(=O)N1CCOCC1)c1cc(Cl)ccc1-3 [Example 1-60, 3-chloro-13-cyclohexyl-5-[2-(morpholin-4-yl)-2-oxoethyl]-6,7-dihydro-5H-benzo[5,6][1,4]diazepino[7,1-a]indole-10-carboxylic acid monohydrochloride] | < 100 nM |
| O=C(O)c1ccc2c(C3CCCCC3)c3n(c2c1)CCN(CCCC(=O)N1CCOCC1)c1ccccc1-3 [Example 1-61, 13-cyclohexyl-5-[4-(morpholin-4-yl)-4-oxobutyl]-6,7-dihydro-5H-benzo[5,6][1,4]diazepino[7,1-a]indole-10-carboxylic acid monohydrochloride] | < 100 nM |
| CCN1CCN(C(=O)CCCN2CCn3c(c(C4CCCCC4)c4ccc(C(=O)O)cc43)-c3ccccc32)CC1 [Example 1-62, 13-cyclohexyl-5-[4-(4-ethylpiperazin-1-yl)-4-oxobutyl]-6,7-dihydro-5H-benzo[5,6][1,4]diazepino[7,1-a]indole-10-carboxylic acid dihydrochloride] | < 100 nM |
| Cc1ccc2c(c1)N(CC(=O)N1CCOCC1)CCn1c-2c(C2CCCCC2)c2ccc(C(=O)O)cc21 [Example 1-63, 13-cyclohexyl-3-methyl-5-[2-(morpholin-4-yl)-2-oxoethyl]-6,7-dihydro-5H-benzo[5,6][1,4]diazepino[7,1-a]indole-10-carboxylic acid monohydrochloride] | < 100 nM |
| COc1ccc2c(c1)N(CC(=O)N1CCOCC1)CCn1c-2c(C2CCCCC2)c2ccc(C(=O)O)cc21 [Example 1-64, 13-cyclohexyl-3-methoxy-5-[2-(morpholin-4-yl)-2-oxoethyl]-6,7-dihydro-5H-benzo[5,6][1,4]diazepino[7,1-a]indole-10-carboxylic acid monohydrochloride] | < 100 nM |
| COc1ccc2c(c1)N(CC(=O)N1CCCCC1)CCn1c-2c(C2CCCCC2)c2ccc(C(=O)O)cc21 [Example 1-65, 13-cyclohexyl-3-methoxy-5-[2-oxo-2-(piperidin-1-yl)ethyl]-6,7-dihydro-5H-benzo[5,6][1,4]diazepino[7,1-a]indole-10-carboxylic acid monohydrochloride] | < 100 nM |
| CCN1CCN(C(=O)CN2CCn3c(c(C4CCCCC4)c4ccc(C(=O)O)cc43)-c3ccc(OC)cc32)CC1 [Example 1-66, 13-cyclohexyl-5-[2-(4-ethylpiperazin-1-yl)-2-oxoethyl]-3-methoxy-6,7-dihydro-5H-benzo[5,6][1,4]diazepino[7,1-a]indole-10-carboxylic acid dihydrochloride] | < 100 nM |
| COc1ccc2c(c1)N(CCN1CCOCC1)CCn1c-2c(C2CCCCC2)c2ccc(C(=O)O)cc21 [Example 1-67, 13-cyclohexyl-3-methoxy-5-[2-(morpholin-4-yl)ethyl]-6,7-dihydro-5H-benzo[5,6][1,4]diazepino[7,1-a]indole-10-carboxylic acid dihydrochloride] | < 100 nM |
| Cc1ccc2c(c1)N(CCN1CCOCC1)CCn1c-2c(C2CCCCC2)c2ccc(C(=O)O)cc21 [Example 1-68, 13-cyclohexyl-3-methyl-5-[2-(morpholin-4-yl)ethyl]-6,7-dihydro-5H-benzo[5,6][1,4]diazepino[7,1-a]indole-10-carboxylic acid dihydrochloride] | < 100 nM |
| O=C(O)c1ccc2c(C3CCCCC3)c3n(c2c1)CCN(CCN1CCCOCC1)c1ccccc1-3 [Example 1-69, 13-cyclohexyl-5-[2-(1,4-oxazepan-4-yl)ethyl]-6,7-dihydro-5H-benzo[5,6][1,4]diazepino[7,1-a]indole-10-carboxylic acid dihydrochloride] | < 100 nM |
| CS(=O)(=O)N1CCN(C(=O)CN2CCn3c(c(C4CCCCC4)c4ccc(C(=O)O)cc43)-c3ccccc32)CC1 [Example 1-70, 13-cyclohexyl-5-[2-(4-methanesulfonylpiperazin-1-yl)-2-oxoethyl]-6,7-dihydro-5H-benzo[5,6][1,4]diazepino[7,1-a]indole-10-carboxylic acid monohydrochloride] | < 100 nM |
| CCC1CCN(C(=O)CN2CCn3c(c(C4CCCCC4)c4ccc(C(=O)O)cc43)-c3ccccc32)CC1 [Example 1-71, 13-cyclohexyl-5-[2-(4-ethylpiperidin-1-yl)-2-oxoethyl]-6,7-dihydro-5H-benzo[5,6][1,4]diazepino[7,1-a]indole-10-carboxylic acid monohydrochloride] | < 100 nM |
| CC1CCN(C(=O)CN2CCn3c(c(C4CCCCC4)c4ccc(C(=O)O)cc43)-c3ccccc32)CC1 [Example 1-72, 13-cyclohexyl-5-[2-(4-methylpiperidin-1-yl)-2-oxoethyl]-6,7-dihydro-5H-benzo[5,6][1,4]diazepino[7,1-a]indole-10-carboxylic acid monohydrochloride] | < 100 nM |
| CCC1CCN(CCN2CCn3c(c(C4CCCCC4)c4ccc(C(=O)O)cc43)-c3ccccc32)CC1 [Example 1-73, 13-cyclohexyl-5-[2-(4-ethylpiperidin-1-yl)ethyl]-6,7-dihydro-5H-benzo[5,6][1,4]diazepino[7,1-a]indole-10-carboxylic acid dihydrochloride] | < 100 nM |
| COc1ccc2c(c1)N(CCN1CCCCC1)CCn1c-2c(C2CCCCC2)c2ccc(C(=O)O)cc21 [Example 1-74, 13-cyclohexyl-3-methoxy-5-[2-(piperidin-1-yl)ethyl]-6,7-dihydro-5H-benzo[5,6][1,4]diazepino[7,1-a]indole-10-carboxylic acid dihydrochloride] | < 100 nM |
| CC1CCN(CCN2CCn3c(c(C4CCCCC4)c4ccc(C(=O)O)cc43)-c3ccccc32)CC1 [Example 1-75, 13-cyclohexyl-5-[2-(4-methylpiperidin-1-yl)ethyl]-6,7-dihydro-5H-benzo[5,6][1,4]diazepino[7,1-a]indole-10-carboxylic acid dihydrochloride] | < 100 nM |
| CCN1CCN(C(=O)CN2CCn3c(c(C4CCCCC4)c4ccc(C(=O)O)cc43)-c3ccc(Cl)cc32)CC1 [Example 1-76, 3-chloro-13-cyclohexyl-5-[2-(4-ethylpiperazin-1-yl)-2-oxoethyl]-6,7-dihydro-5H-benzo[5,6][1,4]diazepino[7,1-a]indole-10-carboxylic acid dihydrochloride] | < 100 nM |
| O=C(O)c1ccc2c(C3CCCCC3)c3n(c2c1)CCN(CC(=O)N1CCCCC1)c1cc(Cl)ccc1-3 [Example 1-77, 3-chloro-13-cyclohexyl-5-[2-oxo-2-(piperidin-1-yl)ethyl]-6,7-dihydro-5H-benzo[5,6][1,4]diazepino[7,1-a]indole-10-carboxylic acid monohydrochloride] | < 100 nM |
| O=C(O)c1ccc2c(C3CCCCC3)c3n(c2c1)CCN(CC(=O)N1CCCCCC1)c1ccccc1-3 [Example 1-78, 5-[2-(azepan-1-yl)-2-oxoethyl]-13-cyclohexyl-6,7-dihydro-5H-benzo[5,6][1,4]diazepino[7,1-a]indole-10-carboxylic acid monohydrochloride] | < 100 nM |

Same assay, conditions: 25° C., 90 min; [5,6-3H]UTP incorporation into RNA; read-out: HCV polymerase inhibitory activity IC50

| SMILES | IC50 |
| --- | --- |
| O=C(O)c1ccc2c(C3CCCCC3)c3n(c2c1)CCN(CCN1CCOCC1)c1cc(Cl)ccc1-3 [Example 1-79, 3-chloro-13-cyclohexyl-5-[2-(morpholin-4-yl)ethyl]-6,7-dihydro-5H-benzo[5,6][1,4]diazepino[7,1-a]indole-10-carboxylic acid dihydrochloride] | < 100 nM |
